Experimental data taken from the NIST ThermoML archive (doi:10.1021/je500239t).
“And” between values parts separate entries of the source, which are not always exact repeats. Equal entries are not always repeated.

Conditions: for mass density: Liquid, isochoric method; for surface tension liquid-gas: Ring tensiometer

CCCCCCCCCCCCCC[P+](CCCCCC)(CCCCCC)CCCCCC.N#C[N-]C#N [tetradecyl(trihexyl)phosphonium dicyanamide]
Conditions | mass density [kg/m3]
240.45 K, 9948.1 kPa | 936.26
247.9 K, 20013 kPa | 935.78
248.45 K, 1061.1 kPa | 928.34
255.19 K, 9753 kPa | 927.91
255.47 K, 29932 kPa | 935.43
255.48 K, 30358 kPa | 935.75
262.34 K, 100 kPa | 919.18
263.19 K, 40368 kPa | 935.25
263.31 K, 20048 kPa | 927.4
265.01 K, 1331.4 kPa | 918.74
268.5 K, 100 kPa | 915.58
271.01 K, 49601 kPa | 934.43
271.54 K, 9121.6 kPa | 918.33
271.95 K, 29894 kPa | 926.34
273.37 K, 100 kPa | 912.9
278.2 K, 100 kPa | 910.1
279.99 K, 39498 kPa | 925.84
280.34 K, 20094 kPa | 917.77
281.41 K, 1813.9 kPa | 908.67
283.3 K, 100 kPa | 907.06
288.09 K, 48847 kPa | 925.34
288.37 K, 100 kPa | 904.29
289.04 K, 30059 kPa | 917.24
289.74 K, 10390 kPa | 908.18
293.14 K, 100 kPa | 901.37
297.73 K, 39781 kPa | 916.7
298.14 K, 20028 kPa | 907.66
298.15 K, 119.7 kPa | 898.63
298.21 K, 100 kPa | 898.81
298.4 K, 1119.7 kPa | 898.73
303.08 K, 100 kPa | 895.87
306.53 K, 28505 kPa | 907.16
307.06 K, 9995.2 kPa | 898.22
307.27 K, 49935 kPa | 916.12
308.18 K, 100 kPa | 892.91
313.09 K, 100 kPa | 890.2
316.64 K, 19643 kPa | 897.65
316.65 K, 39471 kPa | 906.55
318.03 K, 100 kPa | 887.53
318.37 K, 1160.7 kPa | 887.84
323.32 K, 100 kPa | 884.69
327.54 K, 49978 kPa | 905.9
327.66 K, 10032 kPa | 887.3
327.67 K, 30114 kPa | 897.01
328.16 K, 100 kPa | 881.94
332.96 K, 100 kPa | 879.42
338.03 K, 100 kPa | 876.79
338.23 K, 19830 kPa | 886.69
338.63 K, 41032 kPa | 896.36
339.22 K, 1500.6 kPa | 876.45
342.86 K, 100 kPa | 873.89
348.12 K, 100 kPa | 871.1
348.37 K, 49973 kPa | 895.79
349.27 K, 10043 kPa | 875.89
349.28 K, 29863 kPa | 886.05
353.28 K, 100 kPa | 868.29
358 K, 100 kPa | 865.81
364.53 K, 100 kPa | 862.18

Conditions | surface tension liquid-gas
283.57 K | 32.46 mN/m
283.61 K | 32.69 mN/m
288.08 K | 32.54 mN/m
288.09 K | 31.93 mN/m
293.35 K | 31.85 mN/m
293.41 K | 32.02 mN/m
298.2 K | 31.68 mN/m
298.24 K | 31.82 mN/m
303.15 K | 30.98 mN/m
303.2 K | 31.32 mN/m
308.16 K | 30.28 mN/m
308.17 K | 30.84 mN/m
313.21 K | 29.67 mN/m
313.25 K | 30.4 mN/m
318.29 K | 29.57 mN/m
318.3 K | 30.08 mN/m
323.33 K | 29.65 mN/m
323.39 K | 29.41 mN/m
328.05 K | 28.72 mN/m
328.09 K | 29.18 mN/m
333.58 K | 28.62 mN/m and 28.77 mN/m
338.55 K | 28.21 mN/m
338.57 K | 28.35 mN/m
343.55 K | 27.83 mN/m
343.57 K | 27.93 mN/m
348.56 K | 27.59 mN/m
348.64 K | 27.56 mN/m
353.46 K | 26.45 mN/m
353.49 K | 27.11 mN/m
358.44 K | 26.17 mN/m
358.57 K | 26.7 mN/m
365.15 K | 25.74 mN/m
365.21 K | 26.14 mN/m

CCCCCCn1cc[n+](C)c1.F[P-](F)(F)(F)(F)F [1-hexyl-3-methylimidazolium hexafluorophosphate]
Conditions | mass density [kg/m3]
220.78 K, 20693 kPa | 1364.2
221.31 K, 2190 kPa | 1355.99
226.3 K, 10334 kPa | 1355.5
226.34 K, 30167 kPa | 1363.64
232.2 K, 39852 kPa | 1363.05
232.44 K, 20355 kPa | 1354.89
232.75 K, 1468.4 kPa | 1346.06
238.32 K, 29843 kPa | 1354.3
238.38 K, 10065 kPa | 1345.53
239.11 K, 50924 kPa | 1362.36
244.53 K, 39522 kPa | 1353.69
244.58 K, 20078 kPa | 1345.49
244.91 K, 1121.9 kPa | 1336.19
250.82 K, 49360 kPa | 1353.07
251.03 K, 10204 kPa | 1335.6
251.05 K, 29930 kPa | 1344.61
257.33 K, 19488 kPa | 1335.01
257.74 K, 40140 kPa | 1344.21
258.25 K, 1630.4 kPa | 1325.22
264.3 K, 29775 kPa | 1334.34
264.31 K, 10326 kPa | 1324.65
264.31 K, 29966 kPa | 1334.29
264.82 K, 50312 kPa | 1343.28
271.12 K, 19945 kPa | 1324.01
271.72 K, 40378 kPa | 1333.63
272.25 K, 1996.3 kPa | 1314.31
277.88 K, 100 kPa | 1308.85
278.37 K, 29980 kPa | 1323.33
278.39 K, 10230 kPa | 1313.74
278.81 K, 49975 kPa | 1332.93
283.3 K, 100 kPa | 1304.78
285.6 K, 39832 kPa | 1322.66
285.88 K, 20217 kPa | 1313.06
285.98 K, 1730.8 kPa | 1302.58
288.37 K, 100 kPa | 1300.82
293.01 K, 100 kPa | 1296.84
293.33 K, 11116 kPa | 1301.92
293.38 K, 30030 kPa | 1312.37
294.3 K, 49916 kPa | 1321.89
298.16 K, 127.6 kPa | 1293.38
298.21 K, 100 kPa | 1293.14
300.72 K, 20089 kPa | 1301.27
301.06 K, 39951 kPa | 1311.66
301.51 K, 940.4 kPa | 1290.78
303 K, 100 kPa | 1289.6
308.05 K, 100 kPa | 1285.34
308.93 K, 10526 kPa | 1290.11
308.93 K, 30141 kPa | 1300.53
309.51 K, 50444 kPa | 1310.89
313.17 K, 100 kPa | 1280.96
316.34 K, 18783 kPa | 1289.47
317.93 K, 100 kPa | 1277.34
318.19 K, 41900 kPa | 1299.68
318.48 K, 1643.7 kPa | 1277.43
323.16 K, 100 kPa | 1273.19
325.52 K, 47639 kPa | 1299.1
325.7 K, 29844 kPa | 1288.64
325.86 K, 10002 kPa | 1276.79
328.09 K, 100 kPa | 1269.64
333.28 K, 100 kPa | 1265.48
334.93 K, 20139 kPa | 1276.01
336.11 K, 41946 kPa | 1287.71
336.59 K, 1430 kPa | 1262.76
338.63 K, 100 kPa | 1261.76
343.3 K, 100 kPa | 1257.98
344.61 K, 1230.6 kPa | 1256.88
345.06 K, 10024 kPa | 1262.06
345.06 K, 30866 kPa | 1275.14
347.93 K, 50753 kPa | 1286.78
348.55 K, 100 kPa | 1254.47
353.15 K, 18882 kPa | 1261.36
353.15 K, 40148 kPa | 1274.42
353.16 K, 10034 kPa | 1256.16
353.61 K, 100 kPa | 1250.75
358.19 K, 100 kPa | 1247.22
364.46 K, 100 kPa | 1242.36
